Reference: patent US10456344B2, “Hair composition” (Conopco, Inc., priority 2014, dated 2019)

Key:
[1] = system: antioxidant response element (ARE); assay: HaCaT cell with antioxidant response element (ARE) reporter gene (luciferase) assay; type: cell-based, human; conditions: n = 3
Description: HaCaT (immortal human keratinocyte) cells (P42) were stored in liquid nitrogen and revived in DMEM containing 10% FBS. The cells were sub-cultured and cryostocks made in 10% DMEM containing 10% DMSO from the first two passages.
To generate a stable cell line, the optimal antibiotic concentration was determined for selecting stable cell colonies. A kill curve was performed using untransfected HaCaT cells to evaluate their hygromycin B sensitivity (as the ARE-luciferase construct to be used for transfection contains the gene for hygromycin B resistance). HaCaT cells were plated in a 24-well tissue culture plate at a cell density of ˜80,000 cells per well. 24 hours later the cells were treated with different concentrations of Hygromycin B (ranging from 100 μg/ml to 800 μg/ml for seven days).
pGL4.37 (luc2P/ARE/Hygro) vector (Promega Cat. No. #E3641) transformed into DH5α competent cells (Invitrogen Cat. No. #18263-012). These were then plated on to an LB-ampicillin plate and kept overnight at 37° C. in an incubator.
The next day, single colonies were picked and inoculated in 5 ml LB Amp medium and kept at 37° C. for 8 hours in a shaker incubator at 250 rpm. The starter culture was then inoculated at 1:100 in 100 ml LB Amp medium. 24 hours later, the culture was harvested and transfection grade plasmid prepared using Sigma's Plasmid Midiprep Kit (Cat. No. #PLD35-1KT).
HaCaT cells were plated in 6-well tissue culture plate at a cell density of 500,000 cells per well. After 24 hours, the cells were transfected with 2 μg of endotoxin-free transfection grade pGL4.37 [luc2P/ARE/Hygro] vector in duplicates using Lipofectamine 2000 Reagent (Invitrogen) as per manufacturer's protocol. After transfection, HaCaT cells were allowed to grow and to express the protein for Hygromycin B resistance under non-selective conditions for 24 hours. One day post transfection cells were treated with Hygromycin B at a concentration of 400 μg/ml to initiate the antibiotic selection pressure. For the selection of stably expressing cells, HaCaT cells were grown in 10% DMEM medium containing 400 μg/ml of Hygromycin B. Under Hygromycin B selective conditions, resistant cells will outgrow non-resistant cells thereby resulting in a polyclonal population of stably-expressing cells. Stably expressing HaCaT cells were fed every 2-3 days with 400 μg/ml Hygromycin B selection medium. After 3 weeks of selection with 400 μg/ml of Hygromycin B medium stable pools were observed on the plate. Individual clones were picked using cloning rings and transferred to 96-well plate and expanded up to T25 cm^2 flask. Out of a dozen individual clones, clone 7 was chosen and validated for expression of luciferase upon treatment with D,L-sulforaphane.
HaCaT_ARE_luc2P_Clone_7 cells were seeded in a 96 well plate at a cell density of ˜7.5×10^3 cells per well. 24 hours later D, L-sulforaphane was added at increasing concentrations (0 μM, 0.2 μM, 0.4 μM, 0.6 μM, 0.8 μM and 1 μM). A standard curve for the luciferase assay was generated for relative light units (RLU) for HaCaT_ARE_Clone_7 cells treated with increasing concentrations of D,L-sulforaphane.
HaCaT_ARE_luc2P_Clone_7 cells were seeded in 96 well plates at a cell density of ˜7,500 cells per well. All test compounds were added to the cells at a final dilution of 1:1000 and the luciferase assay performed.
The following combinations of test compounds were evaluated in the assay: • (a) granilin, an NRF2 agonist, and 22(R)-hydroxycholesterol, a liver X receptor α/β agonist; • (b) granilin and 3-[3-[[[2-chloro-3-(trifluoromethyl)phenyl]methyl](2,2-diphenylethyl) amino]propoxy]benzeneacetic acid hydrochloride (also known as GW 3965 hydrochloride and available from Tocris), a liver X receptor α/β agonist; and • (c) granilin and stigmasterol, a liver X receptor α/β agonist. Results

[2] = system: hemeoxygenase-1 (HO-1) protein; assay: HO-1 ELISA of lysates of treated HaCaT cells; type: cell-based, human; conditions: 24 hours, n = 3
Description: HaCaT (immortal human keratinocyte) cells (P42) were stored in liquid nitrogen and revived in DMEM containing 10% FBS. The cells were sub-cultured and cryostocks made in 10% DMEM containing 10% DMSO from the first two passages. Cells were routinely plated out in 6-well tissue culture dishes, at a seeding density of ˜5000 cells/cm2 in 2 ml complete medium/well for 24 hours, and incubated at 37° C. in 5% CO2. Test solutions were prepared in ethanol or DMSO and added directly to the cells and treated for 24 hours. The cells were then pelleted. All cell pellets were lysed on ice for 30 minutes in 1 ml cell lysis buffer per 2.5×10^6 cells. The lysis buffer contained 1% NP-40, 0.1% sodium deoxycholate, 0.1% SDS, 6 mM sodium chloride and 0.05 M Tris at pH 7.6. […] Sigma P8340) was added prior to use at a level of 10 μl per ml of lysis buffer. The clarified cell lysate was frozen at −80° C. until needed. The total protein concentration of each cell lysate was measured using the Pierce BCA protein assay kit. […] The reagent solution was prepared according to the kit instructions from 50 parts reagent A and 1 part reagent B. 200 μl of the final reagent was added to each well of the microtitre plate. The plate was mixed, covered and incubated at 37° C. for 30 minutes and absorbance read at 562 nm. A protein standard curve was constructed and used to determine the protein concentration of each cell lysate. HO-1 ELISA (R & D Systems) The hemeoxygenase-1 (HO-1) protein concentration of each cell lysate was assayed using the DuoSet Human Total HO-1/HMOX1 assay (R&D Systems DYC3776) according to the manufacturer's instructions. […] The HO-1 capture antibody was diluted to a concentration of 8 μg/ml in PBS and was bound to the microtitre plate (Greiner Bio-One) overnight at room temperature. The unbound antibody was then removed by washing 3 times with wash buffer (0.05% Tween 20 in PBS) on an automatic plate washer. […] The plate was washed as before. 100 μl of 1/200 diluted streptavidin horseradish peroxidase (HRP) was added to each well and incubated in the dark for 20 minutes at room temperature. The plate was washed as before and then 100 μl of substrate solution (R&D Systems DY999, 1:1 mixture of Colour Reagent A and Colour Reagent B) was added to each well and incubated, in the dark at room temperature, until colour developed (approx 20 minutes). 50 μl of stop solution (2M H2SO4) was applied to each well and the plate read on a microplate reader (Dynex MRX) at 450 nm with wavelength correction set at 540 nm. A standard curve was plotted of mean OD versus HO-1 concentration and the line of best fit calculated by regression analysis. The unknown concentration of HO-1 protein in all the samples was calculated from this. The results were normalised using the total protein data and expressed as ng HO-1 per μg protein. The test compounds were sulforaphane, an NRF2 agonist, and 22(R)-hydroxycholesterol, a liver X receptor α/β agonist, and mixtures thereof.

[3] = system: NADP(H): quinone oxidoreductase (NQO-1); assay: NQO-1 gene expression assay of hair follicle cells (real time PCR); type: cell-based, human; conditions: 24 hour treatment, n = 3
Description: Temporal or occipital human scalp skin was obtained from subjects undergoing face-lift or hair transplant surgery with informed consent and ethics approval. Anagen VI hair follicles were isolated and maintained according to the method described in Philpott et al (J. Cell Sci 97, 463-471 (1990)). Dhurat et al (Int J Trichology, 2(2), 96-100 (July-December 2010)) describe that anagen is conventionally divided into six stages, Anagen I-V (proanagen), when the hair shaft grows within the hair follicle, and Anagen VI ([…]), when the tip of the hair shaft emerges from the hair follicle. Hair follicles were stabilised in RNAlater (for PCR). Five individual Anagen VI hair follicles were used for each culture condition/patient. […] RNA was extracted using the Qiagen RNeasy Microkit (maximum 5 mg tissue per extraction). […] cDNA was diluted 1:10 in RNase free water. […] Plates were run on an Applied Biosystems StepOnePlusTM Real Time PCR machine. Fast cycling conditions were used, utilising a 2 minute polymerase activation step at 95° C., followed by 45 cycles of denaturing at 95° C. for 1 second, and annealing/extension at 60° C. for 20 seconds. […] Data was analysed by the ΔΔCt methodology The test compounds were sulforaphane, an NRF2 agonist, and 22(R)-hydroxycholesterol, a liver X receptor α/β agonist, and mixtures thereof.

HO-1 = conditions: hair follicles treated with sulforaphane; cited from earlier work

Compound	RLU ([1]; 1 μM single compound)	RLU ([1]; 10 μM single compound)	HO-1 protein (ng HO-1 per μg protein) ([2]; 1 μM single compound)	further results
CC[C@H](/C=C/[C@@H](C)[C@H]1CC[C@H]2[C@@H]3CC=C4C[C@@H](O)CC[C@]4(C)[C@H]3CC[C@]12C)C(C)C [stigmasterol]	0.78 ± 0.02 RLU	0.69 ± 0.00 RLU		
CC(C)CC[C@@H](O)[C@@H](C)[C@H]1CC[C@H]2[C@@H]3CC=C4C[C@@H](O)CC[C@]4(C)[C@H]3CC[C@]12C [22(R)-hydroxycholesterol]	1.17 ± 0.03 RLU	0.67 ± 0.01 RLU	1.486 ± 0.387 ng HO-1 per μg protein	HO-1 protein (ng HO-1 per μg protein) ([2]; 10 μM single compound): 3.174 ± 0.119 ng HO-1 per μg protein; NQO-1 Fold change compared to 18S ([3]; 5 μM): 1.04 ± 0.05 Fold change
C=C1C(=O)O[C@@H]2C[C@@]3(C)[C@@H](O)C[C@@H](O)C(=C)[C@@H]3C[C@H]12 [granilin]	3.77 ± 0.31 RLU			RLU ([1]; 5 μM single compound): 15.04 ± 0.18 RLU
Cl.O=C(O)Cc1cccc(OCCCN(Cc2cccc(C(F)(F)F)c2Cl)CC(c2ccccc2)c2ccccc2)c1 [GW 3965 hydrochloride, 3-[3-[[[2-chloro-3-(trifluoromethyl)phenyl]methyl](2,2-diphenylethyl)amino]propoxy]benzeneacetic acid hydrochloride]	1.02 ± 0.02 RLU	0.63 ± 0.01 RLU		
C[S+]([O-])CCCCN=C=S (stereo not shown) [sulforaphane]			1.910 ± 0.418 ng HO-1 per μg protein	HO-1 protein (ng HO-1 per μg protein) ([2]; 0.01 μM single compound): 1.602 ± 0.248 ng HO-1 per μg protein; HO-1 protein (ng HO-1 per μg protein) ([2]; 0.05 μM single compound): 1.600 ± 0.385 ng HO-1 per μg protein; HO-1 in the mesenchymal connective tissue sheath (HO-1): up-regulation of HO-1; NQO-1 Fold change compared to 18S ([3]; 10 μM): 5.44 ± 0.50 Fold change
